# Earlier results in patent publication US20240307300A1, “AN IMPROVED PROCESS FOR THE PREPARATION OF AN AQUEOUS OPHTHALMIC SOLUTION OF DIFLUPREDNATE” (SUN PHARMA ADVANCED RESEARCH COMPANY LIMITED, priority 2021, published 2024).
# Settings: background statement
structure (smiles),measurement,value
CCCC(=O)O[C@]1(C(=O)COC(C)=O)CC[C@H]2[C@@H]3C[C@H](F)C4=CC(=O)C=C[C@]4(C)[C@@]3(F)[C@@H](O)C[C@@]21C [Difluprednate],solubility in aqueous vehicle,practically insoluble
